Columns and labels:
[1] = biological target: T1, TRPC1/5 (Homo sapiens, UniProt P48995+Q9UL62); assay: Calcium flux assay (Calcium 5 kit, EA 100 nM), hTRPC1 + hTRPC5 in HEK293T cells; format: cell-based; settings: calcium flux screening, 10 μM
T1 construct: Full-length, non-tagged hTRPC1 and hTRPC5 constructs are used for calcium flux assays; expressed in transfected cells; host or cells: HEK293T
Method: Full-length, non-tagged hTRPC1 and hTRPC5 constructs are used for calcium flux assays. hTRPC5 is transfected alone or co-transfected with hTRPC1 into HEK293T cells (70–80% confluency) using PEI as the transfection reagent.
The culture medium is removed, and 100 µL of loading buffer (Calcium 5 Assay Kit) is added to each well, followed by a 1-h incubation at 37 °C in 5% CO2. Five minutes before measurement, molecules are added to each well at a final concentration of 10 µM under light-sensitive conditions.

[2] = biological target: T2, TRPC7 homomer (Homo sapiens, UniProt Q9HCX4); assay: Whole-cell patch-clamp, inhibition of TRPC7 homomer; format: cell-based
T2 construct: expressed in transfected cells
T2 sequence (Q9HCX4 1-862): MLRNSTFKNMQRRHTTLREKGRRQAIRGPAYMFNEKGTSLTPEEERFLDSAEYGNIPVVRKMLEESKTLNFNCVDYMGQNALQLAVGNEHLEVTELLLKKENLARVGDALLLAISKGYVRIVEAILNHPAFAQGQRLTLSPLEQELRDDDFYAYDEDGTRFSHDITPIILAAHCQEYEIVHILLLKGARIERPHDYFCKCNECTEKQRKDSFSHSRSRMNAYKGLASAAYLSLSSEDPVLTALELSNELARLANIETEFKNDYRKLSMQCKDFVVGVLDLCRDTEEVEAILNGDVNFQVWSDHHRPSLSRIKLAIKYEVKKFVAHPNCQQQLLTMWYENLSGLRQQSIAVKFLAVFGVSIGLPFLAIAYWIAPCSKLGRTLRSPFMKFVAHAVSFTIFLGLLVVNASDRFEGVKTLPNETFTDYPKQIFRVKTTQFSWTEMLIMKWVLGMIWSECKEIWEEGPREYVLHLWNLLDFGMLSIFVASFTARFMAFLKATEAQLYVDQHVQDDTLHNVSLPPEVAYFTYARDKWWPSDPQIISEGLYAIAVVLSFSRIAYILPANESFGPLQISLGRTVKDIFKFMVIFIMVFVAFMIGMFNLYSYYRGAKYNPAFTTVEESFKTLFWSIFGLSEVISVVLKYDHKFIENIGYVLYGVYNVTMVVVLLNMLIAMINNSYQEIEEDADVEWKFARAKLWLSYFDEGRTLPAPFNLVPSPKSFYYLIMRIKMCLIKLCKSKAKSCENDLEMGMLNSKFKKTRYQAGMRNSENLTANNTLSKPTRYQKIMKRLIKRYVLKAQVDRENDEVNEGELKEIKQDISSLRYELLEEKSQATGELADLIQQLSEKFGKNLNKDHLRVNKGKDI
Text: Error bars represent the standard error of the mean (SEM, n = 5 independent cells).

[3] = test system: lateral amygdala (LA) neurons; assay: Current-clamp recordings in acute brain slices, CCK-4-induced hyperexcitability; format: cell-based, mouse; settings: ex vivo brain slices
Method: Coronal brain slices (300 μm) were prepared from male C57BL/6 J mice (8–10 weeks, Jinan Pengyue Laboratory Animal Breeding Co., Ltd., Jinan, China) and initially incubated in ACSF-1.5 at 32 for 30 min, followed by an additional 1 h at room temperature. Subsequently, slices were transferred to oxygenated artificial cerebrospinal fluid (ACSF) containing the test compound and incubated for 2–3 h before being placed in a recording chamber perfused with ACSF-1.5.
Electrophysiological recordings were performed under an Olympus microscope equipped with a 40× long-working-distance objective. Recording electrodes (3-4 MΩ) were pulled from borosilicate glass capillaries. […] After achieving a gigaseal in voltage-clamp mode at −70 mV and establishing whole-cell configuration with series resistance compensation, recordings were switched to current-clamp mode. Step currents ranging from −60 pA to 300 pA (Δ = 20 pA, 500 ms duration, 3 s interval) were applied to evoke action potentials. […] Intracellular solution (mM): 140 K-gluconate, 2 MgCl₂, 8 KCl, 10 HEPES, 2 Na₂-ATP, 0.2 Na₂-GTP; pH adjusted to 7.2 with KOH.
(d) Quantification of action potential
Data are presented as mean ± SEM (n = 11 neurons

[4] = test system: CUMS-induced depressive-like behaviors; assay: Forced swim test (FST) in CUMS model; format: in vivo, mouse; settings: CUMS mice; 14 days once-daily oral; vs vehicle
Method: The stressors included food and water deprivation, foot shock, wet bedding, cage tilting, restraint, shaking, and olfactory stimulation. These seven stressors were randomly applied each week to ensure unpredictability. The stress induction was maintained continuously for 28 days. Following model establishment, the tail suspension test (TST) was performed to confirm the successful induction of depressive-like behaviors. Mice that met the criteria were randomly assigned to experimental groups. Chronic Treatment: Mice were treated daily for 14 consecutive days. The SPT was conducted on day 11, and the forced swimming test (FST) was performed on day 14.

[5] = test system: mCPP-induced anxiety; assay: Open-field test (OFT), mCPP-induced anxiety model; settings: single dose
[6] = test system: mCPP-induced anxiety; assay: Marble-burying test (MBT), mCPP-induced anxiety model; settings: mCPP mice; single dose
Method: Seventy male 7–8-week-old C57BL/6 J mice from Jinan Pengyue Laboratory Animal Breeding Co., Ltd. (Jinan, China) were randomly and equally divided into seven groups for the experiment. After a 7-day acclimatization period, interventions were carried out for the indicated days. The Elevated Plus Maze (EPM) test was conducted on day 8, the Marble-Burying (MB) test on day 11, and the Open Field (OF) test on day 14. Mice were brought to the experimental site 2 h before the start of the experiment for acclimatization. […] Anxiety models were induced 30 min before the experiment using the following protocols: control group (NS, 10 mL/kg, i.p.), other groups (mCPP, 2 mg/kg, i.p.)[56].
Prior to the test, the animals were acclimated to the testing environment for 60 min. The test lasted for 30 min, and after each round, the bedding was replaced and the cage was disinfected. The number of marbles buried was recorded, with burying more than 50% of the marbles considered as the criteria for burying.

[7] = test system: healthy C57BL/6J mice
Method: The Open-Field test (OFT) was utilized to evaluate the autonomous behavior, exploratory tendencies, and anxiety levels of experimental animals in a new environment. Each mouse was placed at the center of the container and given a 10-min exploration period. Before the test, the animals were acclimated to the experimental setting for 60 min. […] This cleaning procedure aimed to reduce the risk of contamination and prevent any misleading experimental results due to olfactory stimuli. Anxiety levels and exploratory behavior were assessed by measuring the time spent in the central area, the number of entries into the central area, and the total distance traveled by the mice.

T1 sequence (P48995 whole entry): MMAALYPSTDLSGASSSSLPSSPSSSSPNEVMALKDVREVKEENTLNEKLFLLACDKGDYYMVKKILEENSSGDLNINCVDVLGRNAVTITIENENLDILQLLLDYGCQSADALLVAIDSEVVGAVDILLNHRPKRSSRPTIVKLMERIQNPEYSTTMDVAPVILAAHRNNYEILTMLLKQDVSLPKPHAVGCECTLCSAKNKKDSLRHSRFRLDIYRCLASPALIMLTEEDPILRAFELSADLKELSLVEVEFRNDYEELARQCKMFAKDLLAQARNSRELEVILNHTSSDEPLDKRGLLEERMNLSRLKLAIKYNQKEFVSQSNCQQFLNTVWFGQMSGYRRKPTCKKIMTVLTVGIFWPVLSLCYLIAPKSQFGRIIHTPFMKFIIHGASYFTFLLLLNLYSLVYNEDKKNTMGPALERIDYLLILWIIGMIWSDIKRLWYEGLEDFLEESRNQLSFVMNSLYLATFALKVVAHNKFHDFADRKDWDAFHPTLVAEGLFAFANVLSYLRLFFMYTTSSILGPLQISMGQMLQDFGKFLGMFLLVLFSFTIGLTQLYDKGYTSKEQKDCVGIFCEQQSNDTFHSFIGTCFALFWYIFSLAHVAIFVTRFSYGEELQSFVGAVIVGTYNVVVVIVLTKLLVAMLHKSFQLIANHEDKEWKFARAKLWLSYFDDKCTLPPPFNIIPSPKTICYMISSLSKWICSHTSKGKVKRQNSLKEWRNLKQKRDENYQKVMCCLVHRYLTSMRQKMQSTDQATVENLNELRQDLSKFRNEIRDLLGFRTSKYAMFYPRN
T1 sequence (Q9UL62 whole entry): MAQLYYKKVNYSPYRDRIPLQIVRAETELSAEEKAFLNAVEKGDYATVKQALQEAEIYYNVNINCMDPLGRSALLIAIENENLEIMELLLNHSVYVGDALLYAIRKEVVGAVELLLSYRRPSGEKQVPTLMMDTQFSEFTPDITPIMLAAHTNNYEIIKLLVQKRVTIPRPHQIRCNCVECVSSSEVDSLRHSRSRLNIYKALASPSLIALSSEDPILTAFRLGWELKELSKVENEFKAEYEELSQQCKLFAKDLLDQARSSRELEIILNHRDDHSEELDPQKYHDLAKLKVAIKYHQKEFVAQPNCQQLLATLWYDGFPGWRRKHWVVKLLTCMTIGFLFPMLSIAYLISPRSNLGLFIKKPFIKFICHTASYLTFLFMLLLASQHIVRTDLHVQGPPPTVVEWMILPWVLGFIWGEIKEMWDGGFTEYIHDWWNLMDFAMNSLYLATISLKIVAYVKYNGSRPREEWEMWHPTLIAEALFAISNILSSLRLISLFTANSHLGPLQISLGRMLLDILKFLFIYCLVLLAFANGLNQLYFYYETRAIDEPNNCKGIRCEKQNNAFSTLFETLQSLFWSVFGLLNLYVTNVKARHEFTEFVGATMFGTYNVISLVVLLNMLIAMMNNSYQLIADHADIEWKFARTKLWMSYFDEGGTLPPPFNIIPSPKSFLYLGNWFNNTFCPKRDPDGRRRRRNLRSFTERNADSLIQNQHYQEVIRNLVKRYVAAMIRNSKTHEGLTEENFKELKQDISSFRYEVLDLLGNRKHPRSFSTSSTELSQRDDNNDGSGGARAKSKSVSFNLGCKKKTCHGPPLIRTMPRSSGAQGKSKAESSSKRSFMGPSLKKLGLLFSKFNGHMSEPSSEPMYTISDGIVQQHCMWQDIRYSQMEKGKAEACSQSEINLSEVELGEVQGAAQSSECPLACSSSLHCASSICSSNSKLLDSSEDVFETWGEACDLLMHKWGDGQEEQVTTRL

CN(C)CCCCn1c(=O)c2c(nc(Oc3cccc(Cl)c3)n2Cc2ccc(Cl)cc2)n(C)c1=O [H08]
inhibition of TRPC1/5 heteromers (in words) [1]: strong inhibition | IC50 [2]: > 10 µM | inhibition of TRPC7 ([2]; 10 μM): no more than 40% | effect on CCK-4-induced hyperexcitability of lateral amygdala neurons (in words) [3]: selectively suppresses CCK-4-induced hyperexcitability | immobility (FST), repeated dosing [4]: reduced immobility | OFT central zone entries and time in central zone ([5]; mCPP mice): enhancing numbers of central zone entries and time spent in the central zone | OFT total distance traveled ([5]; mCPP-induced anxiety-like mice): no significant effect | MBT number of marbles buried [6]: reducing the number of marbles buried | OFT total distance traveled [7]: no significant effect
